Consider 8 compounds from patent US12516095B2, “Peptide hormone analogues” (IP2IPO INNOVATIONS LIMITED, priority 2019, dated 2026).

Starred links: 1 amine or outer side, 2 acyl side, 3 side chain; linkers in the order of their positions; H or OH if unused. Non-standard residues stand in square brackets, D forms with d. Residues, ends and D or L forms follow the SMILES beside them. Groups on a side chain read outwards from the residue. *: point of attachment. C20 diacid = O=C(O)CCCCCCCCCCCCCCCCCCC(=O)*; C18 diacid = O=C(O)CCCCCCCCCCCCCCCCC(=O)*; γGlu = O=C(O)[C@H](CCC(=O)[*:2])N[*:1]; Aib = CC(C)(N)C(=O)O

A short description of the series: PK measurements for half life assessment in pigs. The class given is in vivo, pig. The note with it: male, large white, pig, plasma, sc, single subcutaneous injection, time from tmax to half of Cmax, typically mean of four animals. On the procedure: Male large white pigs receive a single subcutaneous injection of the test compound at the start of study (0 hours). Repeated blood samples were taken from the pig over the proceeding 168 hours and plasma separated and stored at −20 to −80° C. Plasma concentration of the test compound was quantified using a radioimmunoassay or mass spectrum analysis. Time taken from tmax to half of Cmax was calculated and represents the half-life (t½) of the compound. Typically, the presented t½ is the mean of four separate animals.

`CC[C@H](C)[C@H](NC(=O)[C@H](Cc1ccccc1)NC(=O)[C@H](CCC(=O)O)NC(=O)[C@H](CCC(N)=O)NC(=O)[C@H](C)NC(=O)[C@H](CCCNC(=N)N)NC(=O)[C@H](CCCCN)NC(=O)[C@H](C)NC(=O)[C@H](CC(=O)O)NC(=O)[C@H](CC(C)C)NC(=O)[C@H](Cc1ccc(O)cc1)NC(=O)[C@H](CCCCN)NC(=O)[C@H](CO)NC(=O)[C@H](Cc1ccc(O)cc1)NC(=O)[C@H](CC(=O)O)NC(=O)[C@H](CO)NC(=O)[C@@H](NC(=O)[C@H](Cc1ccccc1)NC(=O)[C@@H](NC(=O)CNC(=O)[C@H](Cc1c[nH]cn1)NC(=O)C(C)(C)NC(=O)[C@@H](N)Cc1c[nH]cn1)[C@@H](C)O)[C@@H](C)O)C(=O)N[C@@H](CCC(=O)O)C(=O)N[C@@H](Cc1c[nH]c2ccccc12)C(=O)N[C@@H](CC(C)C)C(=O)N[C@@H](CC(C)C)C(=O)N[C@@H](CCC(N)=O)C(=O)N[C@@H](CO)C(=O)N[C@@H](Cc1c[nH]cn1)C(=O)N[C@@H](CCC(N)=O)C(=O)N[C@@H](CCC(N)=O)C(=O)N[C@@H](Cc1c[nH]cn1)C(=O)N1CCC[C@H]1C(=O)N[C@@H](CO)C(=O)N1CCC[C@H]1C(=O)N1CCC[C@H]1C(=O)N1CCC[C@H]1C(=O)NCC(=O)N[C@@H](CCCCNC(=O)[C@H](CC(N)=O)NC(=O)CC[C@H](NC(=O)CCCCCCCCCCCCCCCCCCC(=O)O)C(=O)O)C(=O)O` [Example 706] (H-H[Aib]HGTFTSDYSKYLDAKRAQEFIEWLLQSHQQHPSPPPGK([Asn-γGlu-C20 diacid])-OH): the half-life (usually how long it takes for the measured level to halve) is 110 h.

In turn, `CC[C@H](C)[C@H](NC(=O)[C@H](Cc1ccccc1)NC(=O)[C@H](CCC(=O)O)NC(=O)[C@H](CCC(N)=O)NC(=O)[C@H](C)NC(=O)[C@H](CCCNC(=N)N)NC(=O)[C@H](CCCCN)NC(=O)[C@H](C)NC(=O)[C@H](CC(=O)O)NC(=O)[C@H](CC(C)C)NC(=O)[C@H](Cc1ccc(O)cc1)NC(=O)[C@H](CCCCN)NC(=O)[C@H](CO)NC(=O)[C@H](Cc1ccc(O)cc1)NC(=O)[C@H](CC(=O)O)NC(=O)[C@H](CO)NC(=O)[C@@H](NC(=O)[C@H](Cc1ccccc1)NC(=O)[C@@H](NC(=O)CNC(=O)[C@H](Cc1c[nH]cn1)NC(=O)C(C)(C)NC(=O)[C@@H](N)Cc1c[nH]cn1)[C@@H](C)O)[C@@H](C)O)C(=O)N[C@@H](CCC(=O)O)C(=O)N[C@@H](Cc1c[nH]c2ccccc12)C(=O)N[C@@H](CC(C)C)C(=O)N[C@@H](CC(C)C)C(=O)N[C@@H](CCC(N)=O)C(=O)N[C@@H](CO)C(=O)N[C@@H](Cc1c[nH]cn1)C(=O)N[C@@H](Cc1c[nH]cn1)C(=O)N[C@@H](CCC(N)=O)C(=O)N[C@@H](CCC(N)=O)C(=O)N[C@@H](Cc1c[nH]cn1)C(=O)N[C@@H](CCC(=O)O)C(=O)N[C@@H](CO)C(=O)N1CCC[C@H]1C(=O)N1CCC[C@H]1C(=O)N1CCC[C@H]1C(=O)N[C@@H](CCCCNC(=O)[C@H](CC(N)=O)NC(=O)CC[C@H](NC(=O)CCCCCCCCCCCCCCCCCCC(=O)O)C(=O)O)C(=O)O` [Example 549] (H-H[Aib]HGTFTSDYSKYLDAKRAQEFIEWLLQSHHQQHESPPPK([Asn-γGlu-C20 diacid])-OH) showed a half-life of 110 h.

Take `CC[C@H](C)[C@H](NC(=O)[C@H](Cc1ccccc1)NC(=O)[C@H](CCC(=O)O)NC(=O)[C@H](CCC(N)=O)NC(=O)[C@H](C)NC(=O)[C@H](CCCNC(=N)N)NC(=O)[C@H](CCCCN)NC(=O)[C@H](C)NC(=O)[C@H](CC(=O)O)NC(=O)[C@H](CC(C)C)NC(=O)[C@H](Cc1ccc(O)cc1)NC(=O)[C@H](CCCCN)NC(=O)[C@H](CO)NC(=O)[C@H](Cc1ccc(O)cc1)NC(=O)[C@H](CC(=O)O)NC(=O)[C@H](CO)NC(=O)[C@@H](NC(=O)[C@H](Cc1ccccc1)NC(=O)[C@@H](NC(=O)CNC(=O)[C@H](Cc1c[nH]cn1)NC(=O)C(C)(C)NC(=O)[C@@H](N)Cc1c[nH]cn1)[C@@H](C)O)[C@@H](C)O)C(=O)N[C@@H](CCC(=O)O)C(=O)N[C@@H](Cc1c[nH]c2ccccc12)C(=O)N[C@@H](CC(C)C)C(=O)N[C@@H](CC(C)C)C(=O)N[C@@H](CCC(N)=O)C(=O)N[C@@H](CO)C(=O)N[C@@H](Cc1c[nH]cn1)C(=O)N[C@@H](CCC(N)=O)C(=O)N[C@@H](CCC(N)=O)C(=O)N[C@@H](Cc1c[nH]cn1)C(=O)N1CCC[C@H]1C(=O)N[C@@H](CO)C(=O)N[C@@H](CO)C(=O)N[C@@H](CO)C(=O)N[C@@H](C)C(=O)N[C@@H](CCCCNC(=O)[C@H](CC(N)=O)NC(=O)CC[C@H](NC(=O)CCCCCCCCCCCCCCCCCCC(=O)O)C(=O)O)C(=O)O` [Example 708] (H-H[Aib]HGTFTSDYSKYLDAKRAQEFIEWLLQSHQQHPSSSAK([Asn-γGlu-C20 diacid])-OH): the half-life was 105 h.

`CC[C@H](C)[C@H](NC(=O)[C@H](Cc1ccccc1)NC(=O)[C@H](CCC(=O)O)NC(=O)[C@H](CCCNC(=N)N)NC(=O)[C@H](C)NC(=O)[C@H](CCCNC(=N)N)NC(=O)[C@H](CCCCN)NC(=O)[C@H](C)NC(=O)[C@H](CC(=O)O)NC(=O)[C@H](CC(C)C)NC(=O)[C@H](Cc1ccc(O)cc1)NC(=O)[C@H](CCCCN)NC(=O)[C@H](CO)NC(=O)[C@H](Cc1ccc(O)cc1)NC(=O)[C@H](CC(=O)O)NC(=O)[C@H](CO)NC(=O)[C@@H](NC(=O)[C@H](Cc1ccccc1)NC(=O)[C@@H](NC(=O)CNC(=O)[C@H](Cc1c[nH]cn1)NC(=O)C(C)(C)NC(=O)[C@@H](N)Cc1c[nH]cn1)[C@@H](C)O)[C@@H](C)O)C(=O)N[C@@H](CCC(=O)O)C(=O)N[C@@H](Cc1c[nH]c2ccccc12)C(=O)N[C@@H](CC(C)C)C(=O)N[C@@H](CC(C)C)C(=O)N[C@@H](CCC(N)=O)C(=O)N[C@@H](CO)C(=O)N[C@@H](Cc1c[nH]cn1)C(=O)N[C@@H](CCC(N)=O)C(=O)N[C@@H](CCC(N)=O)C(=O)N[C@@H](Cc1c[nH]cn1)C(=O)N[C@@H](CCC(=O)O)C(=O)N[C@@H](CO)C(=O)N1CCC[C@H]1C(=O)N1CCC[C@H]1C(=O)N1CCC[C@H]1C(=O)NCC(=O)N[C@@H](CCCCNC(=O)[C@H](CC(N)=O)NC(=O)CC[C@H](NC(=O)CCCCCCCCCCCCCCCCCCC(=O)O)C(=O)O)C(=O)O` [Example 704] (H-H[Aib]HGTFTSDYSKYLDAKRAREFIEWLLQSHQQHESPPPGK([Asn-γGlu-C20 diacid])-OH) gave a half-life of 96 h.

“H-H[Aib]HGTFTSDYSKYLDAKRAQEFIEWLLQSHHQQHESPPPGK([Asn-γGlu-C20 diacid])-OH [Example 647]” gave a half-life of 106 h.

As to “H-H[Aib]HGTFTSDYSKYLDAKRAQEFIEWLLQSHQQHHESPPPGK([γGlu-C20 diacid])-OH [Example 642]”, the half-life is 109 h.

With `CC[C@H](C)[C@H](NC(=O)[C@H](Cc1ccccc1)NC(=O)[C@H](CCC(=O)O)NC(=O)[C@H](Cc1c[nH]cn1)NC(=O)[C@H](C)NC(=O)[C@H](CCCNC(=N)N)NC(=O)[C@H](CCCCN)NC(=O)[C@H](C)NC(=O)[C@H](CC(=O)O)NC(=O)[C@H](CC(C)C)NC(=O)[C@H](Cc1ccc(O)cc1)NC(=O)[C@H](CCCCN)NC(=O)[C@H](CO)NC(=O)[C@H](Cc1ccc(O)cc1)NC(=O)[C@H](CC(=O)O)NC(=O)[C@H](CO)NC(=O)[C@@H](NC(=O)[C@H](Cc1ccccc1)NC(=O)[C@@H](NC(=O)CNC(=O)[C@H](Cc1c[nH]cn1)NC(=O)C(C)(C)NC(=O)[C@@H](N)Cc1c[nH]cn1)[C@@H](C)O)[C@@H](C)O)C(=O)N[C@@H](CCC(=O)O)C(=O)N[C@@H](Cc1c[nH]c2ccccc12)C(=O)N[C@@H](CC(C)C)C(=O)N[C@@H](CC(C)C)C(=O)N[C@@H](CCC(N)=O)C(=O)N[C@@H](CO)C(=O)N[C@@H](Cc1c[nH]cn1)C(=O)N[C@@H](CCC(N)=O)C(=O)N[C@@H](CCC(N)=O)C(=O)N[C@@H](Cc1c[nH]cn1)C(=O)N[C@@H](CCC(=O)O)C(=O)N[C@@H](CO)C(=O)N1CCC[C@H]1C(=O)N1CCC[C@H]1C(=O)N1CCC[C@H]1C(=O)N[C@@H](CCCCNC(=O)[C@H](CO)NC(=O)CNC(=O)CC[C@H](NC(=O)CCCCCCCCCCCCCCCCC(=O)O)C(=O)O)C(=O)O` [Example 587] (H-H[Aib]HGTFTSDYSKYLDAKRAHEFIEWLLQSHQQHESPPPK([Ser-Gly-γGlu-C18 diacid])-OH), the half-life was 84 h. The half-life values of the last two compounds are within 1.5-fold of each other.

`CC[C@H](C)[C@H](NC(=O)[C@H](Cc1ccccc1)NC(=O)[C@H](CCC(=O)O)NC(=O)[C@H](CCC(N)=O)NC(=O)[C@H](C)NC(=O)[C@H](CCCNC(=N)N)NC(=O)[C@H](CCCCN)NC(=O)[C@H](C)NC(=O)[C@H](CC(=O)O)NC(=O)[C@H](CC(C)C)NC(=O)[C@H](Cc1ccc(O)cc1)NC(=O)[C@H](CCCCN)NC(=O)[C@H](CO)NC(=O)[C@H](Cc1ccc(O)cc1)NC(=O)[C@H](CC(=O)O)NC(=O)[C@H](CO)NC(=O)[C@@H](NC(=O)[C@H](Cc1ccccc1)NC(=O)[C@@H](NC(=O)CNC(=O)[C@H](Cc1c[nH]cn1)NC(=O)C(C)(C)NC(=O)[C@@H](N)Cc1c[nH]cn1)[C@@H](C)O)[C@@H](C)O)C(=O)N[C@@H](CCC(=O)O)C(=O)N[C@@H](Cc1c[nH]c2ccccc12)C(=O)N[C@@H](CC(C)C)C(=O)N[C@@H](CC(C)C)C(=O)N[C@@H](CCC(N)=O)C(=O)N[C@@H](CO)C(=O)N[C@@H](Cc1c[nH]cn1)C(=O)N[C@@H](CCC(N)=O)C(=O)N[C@@H](CCC(N)=O)C(=O)N[C@@H](Cc1c[nH]cn1)C(=O)N1CCC[C@H]1C(=O)N[C@@H](CO)C(=O)N[C@@H](CO)C(=O)N[C@@H](CO)C(=O)N[C@@H](CO)C(=O)N[C@@H](C)C(=O)N[C@@H](CCCCNC(=O)[C@H](CC(N)=O)NC(=O)CC[C@H](NC(=O)CCCCCCCCCCCCCCCCCCC(=O)O)C(=O)O)C(=O)O` [Example 707] (H-H[Aib]HGTFTSDYSKYLDAKRAQEFIEWLLQSHQQHPSSSSAK([Asn-γGlu-C20 diacid])-OH) showed a half-life of 103 h.
